# “And” between values parts separate entries of the source, which are not always exact repeats. Identical values can stand only once.
# Legend:
# [1] = system: non-growing P. aeruginosa DSM1117; assay: Dose-dependent killing analysis (CFU spot-plating) of stationary-phase P. aeruginosa; assay type: cell-based, Pseudomonas aeruginosa; settings: for killing, average Δlog10(CFU/ml) / log10(CFU/ml) of treated nongrowing bacteria (single replicates) / log10(CFU/ml) after treatment: P. aeruginosa; for log10(CFU/ml) of treated nongrowing bacteria (single replicates): before treatment 8.887; for log10(CFU/ml) after treatment: individual replicates
# Method in brief: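 Stationary-phase P. aeruginosa DSM1117 treated for 24 h in 1:4 CA-MHB, pH 7.4, across compound doses. Survivors counted after 10-fold PBS dilution, spot-plating on LB agar and overnight growth at 37 °C; three biological replicates.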
# non-growing UPEC CFT073 = assay: Dose-dependent killing analysis (CFU spot-plating) of stationary-phase UPEC; assay type: cell-based, Escherichia coli; settings: for log10(CFU/ml) after treatment: individual replicates
# Method in brief: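 Non-growing (stationary-phase) UPEC CFT073 treated with compounds in 96-well format at 200 μl, then 10-fold serially diluted in PBS and 10 μl spots plated on LB agar. Plates incubated overnight at 37 °C; colonies counted at lowest resolvable dilution to give CFU. Three biological replicates.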
# [2] = system: non-growing S. aureus DSM2569; assay: Dilution-regrowth assay (OD600, start-growth-time) on stationary-phase S. aureus; assay type: cell-based, Staphylococcus aureus; settings: S. aureus; for EC50: Staphylococcus aureus, DSM2569, regrowth delay of non-growing bacteria, 1:4 CA-MHB pH 7.4, 24 h treatment, OD600 8 h after dilution, read-out: EC50; for Regrowth, OD600 at 6h or 8h after dilution into drug-free medium: average
# Method in brief: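 Stationary-phase S. aureus cultures were grown and exposed to compound for 24 h in 1:4 CA-MHB (pH 7.4) at 37 °C in 96-well plates with 200 μl volume. After dilution into drug-free medium, regrowth was tracked in a plate reader at 37 °C with continuous shaking, reading OD600 every 20 min; EC50 came from five-parameter logistic fitting.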
# [3] = system: non-growing S. aureus DSM2569; assay: Dose-dependent killing analysis (CFU spot-plating) of stationary-phase S. aureus; assay type: cell-based, Staphylococcus aureus; settings: S. aureus; for log10(CFU/ml) of treated nongrowing bacteria (single replicates): before treatment 9,097; for log10(CFU/ml) after treatment: individual replicates
# Method in brief: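 Stationary-phase S. aureus DSM2569 was grown and treated for 24 h in 1:4 CA-MHB at pH 7.4. Treated samples were serially diluted 10-fold in PBS and spot-plated on LB agar, which was incubated overnight at 37 °C. Survivors were counted as CFU over three biological replicates.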
compound,measurement,setting,value
O=C(O)c1cn(-c2ccc(F)cc2)c2cc(N3CCNCC3)c(F)cc2c1=O [Sarafloxacin],"killing, average Δlog10(CFU/ml)",[1]; drug concentration 0.1,0.295 log10(CFU/ml)
same,log10(CFU/ml) of treated nongrowing bacteria (single replicates),[1]; drug concentration 0.1,8.699 log10(CFU/ml) and 8.903 log10(CFU/ml) and 8.176 log10(CFU/ml)
same,"killing, average Δlog10(CFU/ml)",[1]; drug concentration 0.5,1.719 log10(CFU/ml)
same,log10(CFU/ml) of treated nongrowing bacteria (single replicates),[1]; drug concentration 0.5,7.301 log10(CFU/ml) and 6.602 log10(CFU/ml) and 7.602 log10(CFU/ml)
same,"killing, average Δlog10(CFU/ml)",[1]; drug concentration 2.5,3.802 log10(CFU/ml)
same,log10(CFU/ml) of treated nongrowing bacteria (single replicates),[1]; drug concentration 2.5,5.301 log10(CFU/ml) and 5.176 log10(CFU/ml) and 4.778 log10(CFU/ml)
same,"killing, average Δlog10(CFU/ml)",[1]; drug concentration 10,4.887 log10(CFU/ml)
same,log10(CFU/ml) of treated nongrowing bacteria (single replicates),[1]; drug concentration 10,=<4 log10(CFU/ml)
same,"killing, average Δlog10(CFU/ml)","non-growing UPEC CFT073; E. coli in 1:4 CA-MHB (pH 7.4), drug concentration 0.25",0.025 log10(CFU/ml)
same,log10(CFU/ml) of treated nongrowing bacteria (single replicates),"non-growing UPEC CFT073; E. coli in 1:4 CA-MHB (pH 7.4), drug concentration 0.25, before treatment 8.977",9.301 log10(CFU/ml) and 8.477 log10(CFU/ml) and 9.079 log10(CFU/ml)
same,"killing, average Δlog10(CFU/ml)","non-growing UPEC CFT073; E. coli in 1:4 CA-MHB (pH 7.4), drug concentration 0.5",0.172 log10(CFU/ml)
same,log10(CFU/ml) of treated nongrowing bacteria (single replicates),"non-growing UPEC CFT073; E. coli in 1:4 CA-MHB (pH 7.4), drug concentration 0.5, before treatment 8.977",9.000 log10(CFU/ml) and 8.954 log10(CFU/ml) and 8.462 log10(CFU/ml)
same,"killing, average Δlog10(CFU/ml)","non-growing UPEC CFT073; E. coli in 1:4 CA-MHB (pH 7.4), drug concentration 1",0.391 log10(CFU/ml)
same,log10(CFU/ml) of treated nongrowing bacteria (single replicates),"non-growing UPEC CFT073; E. coli in 1:4 CA-MHB (pH 7.4), drug concentration 1, before treatment 8.977",9.114 log10(CFU/ml) and 8.532 log10(CFU/ml) and 8.114 log10(CFU/ml)
same,"killing, average Δlog10(CFU/ml)","non-growing UPEC CFT073; E. coli in 1:4 CA-MHB (pH 7.4), drug concentration 2.5",1.103 log10(CFU/ml)
same,log10(CFU/ml) of treated nongrowing bacteria (single replicates),"non-growing UPEC CFT073; E. coli in 1:4 CA-MHB (pH 7.4), drug concentration 2.5, before treatment 8.977",8.398 log10(CFU/ml) and 7.903 log10(CFU/ml) and 7.322 log10(CFU/ml)
same,"killing, average Δlog10(CFU/ml)","non-growing UPEC CFT073; E. coli in 1:4 CA-MHB (pH 7.4), drug concentration 5",1.741 log10(CFU/ml)
same,log10(CFU/ml) of treated nongrowing bacteria (single replicates),"non-growing UPEC CFT073; E. coli in 1:4 CA-MHB (pH 7.4), drug concentration 5, before treatment 8.977",7.491 log10(CFU/ml) and 7.176 log10(CFU/ml) and 7.041 log10(CFU/ml)
same,"killing, average Δlog10(CFU/ml)","non-growing UPEC CFT073; E. coli in 1:4 CA-MHB (pH 7.4), drug concentration 10",2.143 log10(CFU/ml)
same,log10(CFU/ml) of treated nongrowing bacteria (single replicates),"non-growing UPEC CFT073; E. coli in 1:4 CA-MHB (pH 7.4), drug concentration 10, before treatment 8.977",7.279 log10(CFU/ml) and 6.845 log10(CFU/ml) and 6.380 log10(CFU/ml)
same,"killing, average Δlog10(CFU/ml)","non-growing UPEC CFT073; E. coli in LPM (pH 5.5), drug concentration 0.25",0.072 log10(CFU/ml)
same,log10(CFU/ml) of treated nongrowing bacteria (single replicates),"non-growing UPEC CFT073; E. coli in LPM (pH 5.5), drug concentration 0.25, before treatment 7.350",7.079 log10(CFU/ml) and 6.477 log10(CFU/ml) and 8.279 log10(CFU/ml)
same,"killing, average Δlog10(CFU/ml)","non-growing UPEC CFT073; E. coli in LPM (pH 5.5), drug concentration 0.5",0.127 log10(CFU/ml)
same,log10(CFU/ml) of treated nongrowing bacteria (single replicates),"non-growing UPEC CFT073; E. coli in LPM (pH 5.5), drug concentration 0.5, before treatment 7.350",6.778 log10(CFU/ml) (2×) and 8.114 log10(CFU/ml)
same,"killing, average Δlog10(CFU/ml)","non-growing UPEC CFT073; E. coli in LPM (pH 5.5), drug concentration 1",0.084 log10(CFU/ml)
same,log10(CFU/ml) of treated nongrowing bacteria (single replicates),"non-growing UPEC CFT073; E. coli in LPM (pH 5.5), drug concentration 1, before treatment 7.350",6.477 log10(CFU/ml) and 7.146 log10(CFU/ml) and 8.176 log10(CFU/ml)
same,"killing, average Δlog10(CFU/ml)","non-growing UPEC CFT073; E. coli in LPM (pH 5.5), drug concentration 2.5",0.011 log10(CFU/ml)
same,log10(CFU/ml) of treated nongrowing bacteria (single replicates),"non-growing UPEC CFT073; E. coli in LPM (pH 5.5), drug concentration 2.5, before treatment 7.350",7.114 log10(CFU/ml) and 7.000 log10(CFU/ml) and 7.903 log10(CFU/ml)
same,"killing, average Δlog10(CFU/ml)","non-growing UPEC CFT073; E. coli in LPM (pH 5.5), drug concentration 5",-0.00245 log10(CFU/ml)
same,log10(CFU/ml) of treated nongrowing bacteria (single replicates),"non-growing UPEC CFT073; E. coli in LPM (pH 5.5), drug concentration 5, before treatment 7.350",6.903 log10(CFU/ml) and 7.114 log10(CFU/ml) and 8.041 log10(CFU/ml)
same,"killing, average Δlog10(CFU/ml)","non-growing UPEC CFT073; E. coli in LPM (pH 5.5), drug concentration 10",0.353 log10(CFU/ml)
same,log10(CFU/ml) of treated nongrowing bacteria (single replicates),"non-growing UPEC CFT073; E. coli in LPM (pH 5.5), drug concentration 10, before treatment 7.350",6.699 log10(CFU/ml) and 6.845 log10(CFU/ml) and 7.447 log10(CFU/ml)
same,EC50,[2],662 nM
same,"killing, average Δlog10(CFU/ml)",[3]; drug concentration 0.1,0.203 log10(CFU/ml)
same,log10(CFU/ml) of treated nongrowing bacteria (single replicates),[3]; drug concentration 0.1,8.845 log10(CFU/ml) and 8.903 log10(CFU/ml) and 8.934 log10(CFU/ml)
same,"killing, average Δlog10(CFU/ml)",[3]; drug concentration 0.5,0.133 log10(CFU/ml)
same,log10(CFU/ml) of treated nongrowing bacteria (single replicates),[3]; drug concentration 0.5,8.869 log10(CFU/ml) and 9.111 log10(CFU/ml) and 8.914 log10(CFU/ml)
same,"killing, average Δlog10(CFU/ml)",[3]; drug concentration 2.5,0.565 log10(CFU/ml)
same,log10(CFU/ml) of treated nongrowing bacteria (single replicates),[3]; drug concentration 2.5,8.681 log10(CFU/ml) and 8.914 log10(CFU/ml) and 8.000 log10(CFU/ml)
same,"killing, average Δlog10(CFU/ml)",[3]; drug concentration 10,0.598 log10(CFU/ml)
same,log10(CFU/ml) of treated nongrowing bacteria (single replicates),[3]; drug concentration 10,8.462 log10(CFU/ml) and 8.653 log10(CFU/ml) and 8.380 log10(CFU/ml)
N[C@@H]1CCCCN(c2c(F)cc3c(=O)c(C(=O)O)cn(C4CC4)c3c2Cl)C1 [Besifloxacin],log10(CFU/ml) after treatment,[1]; concentration 0.1,8.000 log10(CFU/ml) and 8.602 log10(CFU/ml) and 8.204 log10(CFU/ml)
same,"killing, average Δlog10(CFU/ml)","[1]; concentration 0.1, vs CFU before treatment",0.619 log10(CFU/ml)
same,log10(CFU/ml) after treatment,[1]; concentration 0.5,7.845 log10(CFU/ml) and 7.699 log10(CFU/ml) (2×)
same,"killing, average Δlog10(CFU/ml)","[1]; concentration 0.5, vs CFU before treatment",1.140 log10(CFU/ml)
same,log10(CFU/ml) after treatment,[1]; concentration 2.5,5.000 log10(CFU/ml) (2×) and 4.699 log10(CFU/ml)
same,"killing, average Δlog10(CFU/ml)","[1]; concentration 2.5, vs CFU before treatment",3.988 log10(CFU/ml)
same,log10(CFU/ml) after treatment,[1]; concentration 10,=<4 log10(CFU/ml) (2×) and 4.301 log10(CFU/ml)
same,"killing, average Δlog10(CFU/ml)","[1]; concentration 10, vs CFU before treatment",4.787 log10(CFU/ml)
same,"reduction of bacterial counts, non-growing P. aeruginosa","[1]; at 2.5 µM, 1:4 CA-MHB pH 7.4, 24 h treatment",more than four
same,log10(CFU/ml) after treatment,"non-growing UPEC CFT073; E. coli in 1:4 CA-MHB (pH 7.4), concentration 0.25",8.778 log10(CFU/ml) and 8.699 log10(CFU/ml) and 8.477 log10(CFU/ml)
same,log10(CFU/ml) after treatment,"non-growing UPEC CFT073; E. coli in 1:4 CA-MHB (pH 7.4), concentration 0.5",8.491 log10(CFU/ml) and 8.204 log10(CFU/ml) (2×)
same,log10(CFU/ml) after treatment,"non-growing UPEC CFT073; E. coli in 1:4 CA-MHB (pH 7.4), concentration 1",7.568 log10(CFU/ml) and 7.322 log10(CFU/ml) and 7.301 log10(CFU/ml)
same,log10(CFU/ml) after treatment,"non-growing UPEC CFT073; E. coli in 1:4 CA-MHB (pH 7.4), concentration 2.5",6.462 log10(CFU/ml) and 6.204 log10(CFU/ml) and 6.342 log10(CFU/ml)
same,log10(CFU/ml) after treatment,"non-growing UPEC CFT073; E. coli in 1:4 CA-MHB (pH 7.4), concentration 5",6.398 log10(CFU/ml) and 5.342 log10(CFU/ml) and 5.362 log10(CFU/ml)
same,log10(CFU/ml) after treatment,"non-growing UPEC CFT073; E. coli in 1:4 CA-MHB (pH 7.4), concentration 10",6.114 log10(CFU/ml) and 5.230 log10(CFU/ml) and 5.000 log10(CFU/ml)
same,"Regrowth, OD600 at 6h or 8h after dilution into drug-free medium",[2]; concentration 0.1,0.576
same,"Regrowth, OD600 at 6h or 8h after dilution into drug-free medium",[2]; concentration 0.5,0.336
same,"Regrowth, OD600 at 6h or 8h after dilution into drug-free medium",[2]; concentration 2.5,0.134
same,"Regrowth, OD600 at 6h or 8h after dilution into drug-free medium",[2]; concentration 10,0.097
same,EC50,[2],401 nM
same,log10(CFU/ml) after treatment,[3]; concentration 0.1,9.061 log10(CFU/ml) and 9.079 log10(CFU/ml) and 8.740 log10(CFU/ml)
same,log10(CFU/ml) after treatment,[3]; concentration 0.5,8.398 log10(CFU/ml) and 8.431 log10(CFU/ml) and 8.104 log10(CFU/ml)
same,log10(CFU/ml) after treatment,[3]; concentration 2.5,7.196 log10(CFU/ml) and 7.716 log10(CFU/ml) and 6.826 log10(CFU/ml)
same,log10(CFU/ml) after treatment,[3]; concentration 10,7.033 log10(CFU/ml) and 7.000 log10(CFU/ml) and 6.100 log10(CFU/ml)
